Data taken from paper PMC6718988, “Bioactivity and Bactericidal Mechanism of Histidine-Rich β-Hairpin Peptide Against Gram-Negative Bacteria” (International Journal of Molecular Sciences, 2019).
In brackets after ≈: the same amount, converted by molar mass. Where two headings read alike, the source gives them in different places. Where a SMILES comes first, the peptide text is derived from it. Bridges are numbered along the chain shown (N, C = ends). [ ]: non-standard residue; d: D form. The star is where a group is joined. X1 = CC[C@H](C)CCCCC(=O)*; Dab = NCC[C@H](N)C(=O)O

How the values were obtained:
[1] = LPS binding assay (BODIPY-TR-cadaverine displacement); design: species or system E. coli; settings: peptide concentration higher than 4 μM; 50 μg/mL LPS, 5 μg/mL BODIPY-TR cadaverine, Tris 50 mM pH 7.4; 100% = 10 μg/mL polymyxin B
Experimental: The abilities of the antimicrobial peptides to bind LPS were determined using the fluorescent dye BODIPY-TR-cadaverine (BC) substitution method. LPS (50 μg/mL) from E. coli O111:B4 was incubated with BC (5 μg/mL) in Tris buffer (50 mm, pH 7.4) for 4 h. Next, 50 μL of various concentrations of peptides (final concentration of 1–64 μM) and 50 μL of LPS-BC mixture were added to 96-well plates, and the fluorescence was measured using a fluorescence spectrophotometer (Infinite 200 pro, Tecan, China) at an excitation wavelength of 580 nm and an emission wavelength of 620 nm. Each test was performed three times. The values were converted to %∆F (AU) using the following equation:%ΔF (AU) = [(Fobs − F0)/(F100 − F0)] × 100 where Fobs is the fluorescence value measured in the presence of the peptide, F0 is the initial fluorescence of LPS with BC without the addition of peptides, F100 is the fluorescence value produced by adding 10 μg/mL polymyxin B.

[2] = tested on: Gram-negative bacteria; assay: MICs against Gram-negative strains (geometric mean, range); format: cell-based; settings: for MBC (GM), geometric mean of MICs, Gram (−): Gram-negative strains, 256 μM used where no activity at 128 μM
Experimental: (§1) The minimum inhibitory concentration (MIC) was measured using a broth microdilution method to determine the in vitro antimicrobial activity of the peptides. Bacteria were inoculated into MHB and incubated overnight at 37 °C until the bacteria were in log phase growth. Next, we corrected the bacterial concentration to approximately 1 × 10^5 CFU/mL using MHB. The peptides were added to 96-well plates containing 0.01% acetic acid and 0.2% bovine serum albumin at final concentrations ranging from 0.25 to 128 μM. After incubation at 37 °C for 24 h, the absorbance was measured at 492 nm using a microplate reader (Tecan GENios F129004, Tecan, Austria). Broth containing microbes and […] were used as positive and negative controls, respectively. The lowest peptide concentration with no increase in absorbance compared to that of the negative control was defined as the MIC. The experiments were independently performed three times.

[3] = RP-HPLC retention time as measure of hydrophobicity; format: physicochemical; settings: analytical Kromasil C18 column 4.6 mm × 250 mm, 5.0 μm, acetonitrile, flow 1.0 mL/min, used as measure of hydrophobicity
Experimental: The hydrophobicities of the peptides in solution were reliably mirrored by their high-performance liquid chromatography (HPLC)retention times. The retention times for peptide HI2, HW2, HV2, HF2, and PG-1 were 11.13, 10.55, 12.20, 18.06 and 12.56 min, respectively, indicating the following hydrophobic order: HF2 > PG-1 > HV2 > HI2 > HW2(Table 1).
The designed peptides were synthesized and purified by GL Biochem (Shanghai, China). Acetonitrile was used on an analytical Kromasil C18 column (4.6 mm × 250 mm, 5.0 μm, LC 3000, Beijing, China), and the purity of the peptides was determined to be greater than 95% via reversed-phase high-performance liquid chromatography (RP-HPLC) with a flow rate of 1.0 mL/min. The experimental molecular weights of the peptides were evaluated via ESI-MS analysis, and these values were very close to the calculated masses. Next, the peptides were dissolved in deionized water at a concentration of 2.56 mM, and the peptide solutions were stored at −20 °C.

[4] = tested on: human red blood cells (hRBCs); assay: Hemolytic activity; settings: 1 h, OD 570 nm
Experimental: Briefly, collected human red blood cells (hRBCs) were washed three times with PBS (pH 7.4) and diluted to 1% in PBS. Next, equal volumes of blood cells were mixed with different peptide concentrations in 96-well plates followed by incubated at 37 °C for 1 h. The mixtures were centrifuged (1000 g, 5 min), and the supernatants were transferred to 96-well plates to measure the optical density (OD) at 570 nm. Untreated blood cells were used as negative controls, and 0.1% Triton X-100-treated blood cells were used as positive controls. The minimum peptide concentration corresponding to 5% hemolytic activity was defined as the minimal hemolytic concentration (MHC). These assays were independently repeated three times.

[5] = tested on: Gram-positive and Gram-negative bacteria
Experimental: as §1

[6] = tested on: Gram-positive bacteria
Experimental: as §1

[7] = tested on: methicillin-resistant S. aureus ATCC43300; assay: microbe, parasite or virus in culture
Experimental: as §1

[8] = tested on: S. epidermidis ATCC12228; assay: microbe, parasite or virus in culture
Experimental: as §1

[9] = tested on: E. coli K88; assay: microbe, parasite or virus in culture
Experimental: as §1

[10] = tested on: E. coli ATCC25922; assay: microbe, parasite or virus in culture
Experimental: as §1

[11] = tested on: E. coli UB1005; assay: microbe, parasite or virus in culture
Experimental: as §1

[12] = tested on: E. coli K99; assay: microbe, parasite or virus in culture
Experimental: as §1

[13] = tested on: S. aureus ATCC29213; assay: microbe, parasite or virus in culture
Experimental: as §1

[14] = tested on: S. pullorum C7913; assay: microbe, parasite or virus in culture
Experimental: as §1

[15] = tested on: P. aeruginosa ATCC27853; assay: microbe, parasite or virus in culture
Experimental: as §1

[16] = S.aureus 43300 (methicillin-resistant), MHB, about 1 × 10^5 CFU/mL, 37 °C, 24 h, three independent experiments
[17] = S.epidermidis 12228, MHB, about 1 × 10^5 CFU/mL, 37 °C, 24 h, three independent experiments
[18] = E. coli K88, MHB, about 1 × 10^5 CFU/mL, 37 °C, 24 h, three independent experiments
[19] = E. coli K99, MHB, about 1 × 10^5 CFU/mL, 37 °C, 24 h, three independent experiments
[20] = S.aureus 29213, MHB, about 1 × 10^5 CFU/mL, 37 °C, 24 h, three independent experiments
[21] = P. auruginosa 27853, MHB, about 1 × 10^5 CFU/mL, 37 °C, 24 h, three independent experiments

SMILES: CC[C@H](C)[C@H](NC(=O)CNC(=O)[C@H]1CCCN1C(=O)[C@@H](NC(=O)[C@H](Cc1c[nH]cn1)NC(=O)[C@@H](NC(=O)[C@H](Cc1c[nH]cn1)NC(=O)[C@@H](NC(=O)[C@H](CCCNC(=N)N)NC(=O)[C@@H](N)CCCNC(=N)N)[C@@H](C)CC)[C@@H](C)CC)[C@@H](C)CC)C(=O)N[C@@H](Cc1c[nH]cn1)C(=O)N[C@H](C(=O)N[C@@H](Cc1c[nH]cn1)C(=O)N[C@H](C(=O)N[C@@H](CCCNC(=N)N)C(=O)N[C@@H](CCCNC(=N)N)C(N)=O)[C@@H](C)CC)[C@@H](C)CC [HI2] (H-RRIHIHI[dP]GIHIHIRR-NH2; N-terminus assumed)
- LPS binding ability relative to binding activity of polymyxin B [1]: higher than 60%
- MBC (GM), geometric mean of MICs, Gram (−) [2]: 50.80 µM
- Retention Time [3]: 11.13 min
- hemolysis rate ([4]; at the highest concentration (128 μM), 1% hRBC in PBS, 37 °C, 0.1% Triton X-100 positive control): 3.4%
- MHC, minimum hemolytic concentration ([4]; concentration causing 5% hemolysis of hRBC, 1% hRBC in PBS pH 7.4, 37 °C, repeated three times): >128 µM
- MBC (GM), geometric mean of MICs, Gram (+,−) ([5]; 24 h): 87.09 µM
- MBC (GM), geometric mean of MICs, Gram (+) ([6]; 24 h): 256 µM
- MIC [7, 16]: >128 µM
- MIC [8, 17]: >128 µM
- MIC [9, 18]: 32 µM (≈ 64.8 µg/mL)
- MIC ([10]; ATCC25922, 24 h): 32 µM (≈ 64.8 µg/mL)
- MIC ([11]; UB1005, 24 h): 16 µM (≈ 32.4 µg/mL)
- MIC [12, 19]: >128 µM
- MIC [13, 20]: >128 µM
- MIC ([14]; C7913, 24 h): 16 µM (≈ 32.4 µg/mL)
- MIC [15, 21]: >128 µM

SMILES: CC[C@H](C)CCCCC(=O)N[C@@H](CCN)C(=O)N[C@H](C(=O)N[C@@H](CCN)C(=O)N[C@H]1CCNC(=O)[C@H]([C@@H](C)O)NC(=O)[C@H](CCN)NC(=O)[C@H](CCN)NC(=O)[C@H](CC(C)C)NC(=O)[C@@H](Cc2ccccc2)NC(=O)[C@H](CCN)NC1=O)[C@@H](C)O [Polymyxin B, polymyxin B] (X1-[Dab]T[Dab][Dab][Dab][dF]L[Dab][Dab]T; lactam 4-C (inferred); N-terminus assumed)
- MBC (GM), geometric mean of MICs, Gram (−) [2]: 1.12 µM
- MBC (GM), geometric mean of MICs, Gram (+,−) ([5]; all strains, 256 μM used where no activity at 128 μM): 4 µM
- MBC (GM), geometric mean of MICs, Gram (+) ([6]; Gram-positive strains, 256 μM used where no activity at 128 μM): 50.8 µM
- MIC [7, 16]: 64 µM (≈ 77 µg/mL)
- MIC [8, 17]: 32 µM (≈ 38.5 µg/mL)
- MIC [9, 18]: 0.5 µM (≈ 0.602 µg/mL)
- MIC ([10]; E. coli 25922, MHB, about 1 × 10^5 CFU/mL, 37 °C, 24 h, 0.25-128 μM, three independent experiments): 2 µM (≈ 2.41 µg/mL)
- MIC ([11]; E. coli UB1005, MHB, about 1 × 10^5 CFU/mL, 37 °C, 24 h, three independent experiments): 1 µM (≈ 1.2 µg/mL)
- MIC [12, 19]: 1 µM (≈ 1.2 µg/mL)
- MIC [13, 20]: 64 µM (≈ 77 µg/mL)
- MIC ([14]; S.pullorum C7913, MHB, about 1 × 10^5 CFU/mL, 37 °C, 24 h, three independent experiments): 1 µM (≈ 1.2 µg/mL)
- MIC [15, 21]: 2 µM (≈ 2.41 µg/mL)

SMILES: CN[C@H](CC(C)C)C(=O)N[C@H]1C(=O)N[C@@H](CC(N)=O)C(=O)N[C@H]2C(=O)N[C@H]3C(=O)N[C@H](C(=O)N[C@H](C(=O)O)c4cc(O)cc(O)c4-c4cc3ccc4O)[C@H](O)c3ccc(c(Cl)c3)Oc3cc2cc(c3O[C@@H]2O[C@H](CO)[C@@H](O)[C@H](O)[C@H]2O[C@H]2C[C@](C)(N)[C@H](O)[C@H](C)O2)Oc2ccc(cc2Cl)[C@H]1O [Vancomycin]
- geometric mean MIC ([2]; read-out: MBC (GM), geometric mean of MICs, Gram (−)): 11.3 µM
- MIC ([7]; Staphylococcus aureus, ATCC43300, 24 h): 0.5 µM (≈ 0.725 µg/mL)
- MIC ([8]; Staphylococcus epidermidis, ATCC12228, 24 h): 0.5 µM (≈ 0.725 µg/mL)
- MIC ([9]; Escherichia coli, K88, 24 h): 2 µM (≈ 2.9 µg/mL)
- MIC ([10]; Escherichia coli, ATCC25922, 24 h): 8 µM (≈ 11.6 µg/mL)
- MIC ([11]; Escherichia coli, UB1005, 24 h): 16 µM (≈ 23.2 µg/mL)
- MIC ([12]; Escherichia coli, K99, 24 h): 4 µM (≈ 5.8 µg/mL)
- MIC ([13]; Staphylococcus aureus, ATCC29213, 24 h): 0.5 µM (≈ 0.725 µg/mL)
- MIC ([14]; Salmonella enterica, PULLORUM, 24 h): 8 µM (≈ 11.6 µg/mL)
- MIC ([15]; Pseudomonas aeruginosa, ATCC27853, 24 h): > 128 µM
